# Patent US20210254272A1, “TEXTILES HAVING ANTIMICROBIAL PROPERTIES” (Livinguard AG, priority 2015, published 2021)
# Test system: E. coli (ATCC 25922)
# Assay: AATCC Test Method 100-2012 antibacterial activity of the treated textile, after 25 washes and 12 abrasion cycles, contact time 60 minutes
# Format: cell-based
# Conditions: for Log reduction of antimicrobial performance: 1% o.w.f; for Log reduction of antimicrobial performance in 100 GSM Polyester fabric / Log reduction of antimicrobial performance in 100 GSM cotton fabric / Log reduction of antimicrobial performance in 300 GSM Polyester fabric / Log reduction of antimicrobial performance in 300 GSM cotton fabric / Performance Test-Log reduction of antimicrobial performance: 2 min; for Performance Test-Log reduction of antimicrobial performance: pad process, single agent 5 gm/lit
# Description: The antibacterial activity of the textile was tested in accordance with AATCC Test Method 100-2012. Prior to the test, the fabric was cut into coupons of 2×4 inches and washed separately 25 times, and exposed to 12 abrasion cycles, as per US EPA protocol 90072PA4 (described further below). The tests were made against E. coli (ATCC 25922). Contact time was 60 minutes, after inoculating with 10^8 CFU per coupon.
# [1] = exhaust 80° C., 60 min, curing 180° C., dosage 0.1% o.w.f
# [2] = exhaust 80° C., 60 min, curing 180° C., dosage 0.2% o.w.f
# [3] = exhaust 80° C., 60 min, curing 180° C., dosage 0.5% o.w.f
# [4] = exhaust 80° C., 60 min, curing 180° C., dosage 0.8% o.w.f
# [5] = exhaust 80° C., 60 min, curing 180° C., dosage 1.0% o.w.f
compound,measurement,setting,value
"CCCC1COC(Cn2cncn2)(c2ccc(Cl)cc2Cl)O1 (stereo not drawn) [Propiconazole, propiconazole]",Log reduction of antimicrobial performance of each active ingredient,"exhaust 60° C., solution dosage 1% o.w.f, process time 60 min",1.7 Log
same,Log reduction of antimicrobial performance of each active ingredient,"exhaust 60° C., solution dosage 1% o.w.f, process time 90 min",1.8 Log
same,Log reduction of antimicrobial performance of each active ingredient,"exhaust 60° C., solution dosage 1% o.w.f, process time 120 min",2.2 Log
same,Log reduction of antimicrobial performance of each active ingredient,"exhaust 60° C., solution dosage 1% o.w.f, process time 180 min",2.3 Log
same,Log reduction of antimicrobial performance of each active ingredient,"exhaust 60° C., solution dosage 1% o.w.f, process time 240 min",2.11 Log
same,Log reduction of antimicrobial performance,"exhaust 80° C., 60 min, curing 170° C., curing dwell time 0.5 min",0.3 Log
same,Log reduction of antimicrobial performance,"exhaust 80° C., 60 min, curing 170° C., curing dwell time 1.0 min",0.6 Log
same,Log reduction of antimicrobial performance,"exhaust 80° C., 60 min, curing 170° C., curing dwell time 1.5 min",0.8 Log
same,Log reduction of antimicrobial performance,"exhaust 80° C., 60 min, curing 170° C., curing dwell time 2.0 min",1.3 Log
same,Log reduction of antimicrobial performance,"exhaust 80° C., 60 min, curing 170° C., curing dwell time 2.5 min",1.1 Log
same,Log reduction of antimicrobial performance,"exhaust 80° C., 60 min, curing 170° C., curing dwell time 3.0 min",0.67 Log
same,Log reduction of antimicrobial performance,"exhaust 80° C., 60 min, curing 180° C., curing dwell time 0.5 min",1.7 Log
same,Log reduction of antimicrobial performance,"exhaust 80° C., 60 min, curing 180° C., curing dwell time 1.0 min",1.8 Log
same,Log reduction of antimicrobial performance,"exhaust 80° C., 60 min, curing 180° C., curing dwell time 1.5 min",2.2 Log
same,Log reduction of antimicrobial performance,"exhaust 80° C., 60 min, curing 180° C., curing dwell time 2.0 min",3.8 Log
same,Log reduction of antimicrobial performance,"exhaust 80° C., 60 min, curing 180° C., curing dwell time 2.5 min",3.5 Log
same,Log reduction of antimicrobial performance,"exhaust 80° C., 60 min, curing 180° C., curing dwell time 3.0 min",3.4 Log
same,Log reduction of antimicrobial performance,"exhaust 80° C., 60 min, curing 190° C., curing dwell time 0.5 min",0.3 Log
same,Log reduction of antimicrobial performance,"exhaust 80° C., 60 min, curing 190° C., curing dwell time 1.0 min",0.8 Log
same,Log reduction of antimicrobial performance,"exhaust 80° C., 60 min, curing 190° C., curing dwell time 1.5 min",2.2 Log
same,Log reduction of antimicrobial performance,"exhaust 80° C., 60 min, curing 190° C., curing dwell time 2.0 min",2.88 Log
same,Log reduction of antimicrobial performance,"exhaust 80° C., 60 min, curing 190° C., curing dwell time 2.5 min",2.34 Log
same,Log reduction of antimicrobial performance,"exhaust 80° C., 60 min, curing 190° C., curing dwell time 3.0 min",1.1 Log
same,Log reduction of antimicrobial performance,"exhaust 80° C., 60 min, curing temperature 100 ° C.",0.21 Log
same,Log reduction of antimicrobial performance,"exhaust 80° C., 60 min, curing temperature 120 ° C.",0.45 Log
same,Log reduction of antimicrobial performance,"exhaust 80° C., 60 min, curing temperature 140 ° C.",0.98 Log
same,Log reduction of antimicrobial performance,"exhaust 80° C., 60 min, curing temperature 160 ° C.",1.23 Log
same,Log reduction of antimicrobial performance,"exhaust 80° C., 60 min, curing temperature 165 ° C.",1.28 Log
same,Log reduction of antimicrobial performance,"exhaust 80° C., 60 min, curing temperature 170 ° C.",1.45 Log
same,Log reduction of antimicrobial performance,"exhaust 80° C., 60 min, curing temperature 175 ° C.",2.32 Log
same,Log reduction of antimicrobial performance,"exhaust 80° C., 60 min, curing temperature 180 ° C.",2.87 Log
same,Log reduction of antimicrobial performance,"exhaust 80° C., 60 min, curing temperature 185 ° C.",2.88 Log
same,Log reduction of antimicrobial performance,"exhaust 80° C., 60 min, curing temperature 190 ° C.",2.91 Log
same,Log reduction of antimicrobial performance,"exhaust 80° C., 60 min, curing temperature 195 ° C.",2.93 Log
same,Log reduction of antimicrobial performance in 100 GSM Polyester fabric,[1],0.59 Log
same,Log reduction of antimicrobial performance in 100 GSM cotton fabric,[1],0.63 Log
same,Log reduction of antimicrobial performance in 300 GSM Polyester fabric,[1],0.58 Log
same,Log reduction of antimicrobial performance in 300 GSM cotton fabric,[1],0.64 Log
same,Log reduction of antimicrobial performance in 100 GSM Polyester fabric,[2],1.35 Log
same,Log reduction of antimicrobial performance in 100 GSM cotton fabric,[2],1.45 Log
same,Log reduction of antimicrobial performance in 300 GSM Polyester fabric,[2],1.37 Log
same,Log reduction of antimicrobial performance in 300 GSM cotton fabric,[2],1.45 Log
same,Log reduction of antimicrobial performance in 100 GSM Polyester fabric,[3],1.71 Log
same,Log reduction of antimicrobial performance in 100 GSM cotton fabric,[3],1.95 Log
same,Log reduction of antimicrobial performance in 300 GSM Polyester fabric,[3],1.73 Log
same,Log reduction of antimicrobial performance in 300 GSM cotton fabric,[3],1.95 Log
same,Log reduction of antimicrobial performance in 100 GSM Polyester fabric,[4],2.14 Log
same,Log reduction of antimicrobial performance in 100 GSM cotton fabric,[4],2.34 Log
same,Log reduction of antimicrobial performance in 300 GSM Polyester fabric,[4],2.50 Log
same,Log reduction of antimicrobial performance in 300 GSM cotton fabric,[4],2.34 Log
same,Log reduction of antimicrobial performance in 100 GSM Polyester fabric,[5],2.75 Log
same,Log reduction of antimicrobial performance in 100 GSM cotton fabric,[5],2.85 Log
same,Log reduction of antimicrobial performance in 300 GSM Polyester fabric,[5],2.74 Log
same,Log reduction of antimicrobial performance in 300 GSM cotton fabric,[5],2.88 Log
same,Log reduction of antimicrobial performance of each active ingredient,"exhaust 80° C., 60 min, dosage 1% o.w.f (test up to 5% o.w.f)",2.56 Log
same,Log reduction of antimicrobial performance of each active ingredient,"exhaust 80° C., 60 min, dosage 2% o.w.f",2.57 Log
same,Log reduction of antimicrobial performance of each active ingredient,"exhaust 80° C., 60 min, dosage 3% o.w.f",2.58 Log
same,Log reduction of antimicrobial performance of each active ingredient,"exhaust 80° C., 60 min, dosage 4% o.w.f",2.61 Log
same,Log reduction of antimicrobial performance of each active ingredient,"exhaust 80° C., 60 min, dosage 5% o.w.f",2.63 Log
same,Log reduction of antimicrobial performance of each active ingredient,"exhaust 80 ° C., solution dosage 1% o.w.f, process time 10 min",0.83 Log
same,Log reduction of antimicrobial performance of each active ingredient,"exhaust 80 ° C., solution dosage 1% o.w.f, process time 20 min",0.99 Log
same,Log reduction of antimicrobial performance of each active ingredient,"exhaust 80 ° C., solution dosage 1% o.w.f, process time 30 min",1.23 Log
same,Log reduction of antimicrobial performance of each active ingredient,"exhaust 80 ° C., solution dosage 1% o.w.f, process time 40 min",1.67 Log
same,Log reduction of antimicrobial performance of each active ingredient,"exhaust 80 ° C., solution dosage 1% o.w.f, process time 50 min",2.56 Log
same,Log reduction of antimicrobial performance of each active ingredient,"exhaust 80 ° C., solution dosage 1% o.w.f, process time 60 min",2.87 Log
same,Log reduction of antimicrobial performance of each active ingredient,"exhaust 80 ° C., solution dosage 1% o.w.f, process time 70 min",2.89 Log
same,Log reduction of antimicrobial performance of each active ingredient,"exhaust 80 ° C., solution dosage 1% o.w.f, process time 80 min",2.93 Log
same,Log reduction of antimicrobial performance of each active ingredient,"exhaust 80 ° C., solution dosage 1% o.w.f, process time 90 min",2.94 Log
same,Performance Test-Log reduction of antimicrobial performance,curing 120° C.,0.04 Log
same,Performance Test-Log reduction of antimicrobial performance,curing 140° C.,0.14 Log
same,Performance Test-Log reduction of antimicrobial performance,curing 150° C.,0.22 Log
same,Performance Test-Log reduction of antimicrobial performance,curing 160° C.,0.49 Log
